Test results from ChEMBL document CHEMBL5126659, “Antiasthmatic Compounds Targeting β2-Adrenergic Receptor from Perilla frutescens Improved Lung Inflammation by Inhibiting the NF-κB Signaling Pathway” (J Nat Prod, 2022).
Calls of active or inactive are those of the source.

How the values were obtained:
Format in all cases: functional, organism-based
Rattus norvegicus [1] = test: Anti-asthmatic activity against ovalbumin-induced asthmatic Sprague-Dawley rat model assessed as reduction in total IgE level in serum at 4.5 to 18 mg/kg, po for 7 days by ELISA; conditions: dose 4.5-18 mg/kg, time 7.0 day
Rattus norvegicus [2] = test: Anti-asthmatic activity against ovalbumin-induced asthmatic Sprague-Dawley rat model assessed as reduction in OVA specific IgE level in serum at 4.5 to 18 mg/kg, po for 7 days by ELISA; conditions: dose 4.5-18 mg/kg, time 7.0 day
Rattus norvegicus [3] = test: Anti-asthmatic activity against ovalbumin-induced asthmatic Sprague-Dawley rat model assessed as reduction in total IgE level in BALF at 4.5 to 18 mg/kg, po for 7 days by ELISA; conditions: dose 4.5-18 mg/kg, time 7.0 day
Rattus norvegicus [4] = test: Anti-asthmatic activity against ovalbumin-induced asthmatic Sprague-Dawley rat model assessed as reduction in OVA specific IgE level in BALF at 4.5 to 18 mg/kg, po for 7 days by ELISA; conditions: dose 4.5-18 mg/kg, time 7.0 day
Rattus norvegicus [5] = test: Anti-asthmatic activity against ovalbumin-induced asthmatic Sprague-Dawley rat model assessed as reduction in OVA specific IgE level in serum at 4.5 to 9 mg/kg, po for 7 days by ELISA; conditions: dose 4.5-9 mg/kg, time 7.0 day, DDE = dose-dependent effect
Rattus norvegicus [6] = test: Anti-asthmatic activity against ovalbumin-induced asthmatic Sprague-Dawley rat model assessed as reduction in OVA specific IgE level in BALF at 4.5 to 9 mg/kg, po for 7 days by ELISA; conditions: dose 4.5-9 mg/kg, time 7.0 day, DDE = dose-dependent effect
Rattus norvegicus [7] = test: Anti-asthmatic activity against ovalbumin-induced asthmatic Sprague-Dawley rat model assessed as reduction in eotaxin level in BALF at 4.5 to 18 mg/kg, po for 7 days by ELISA; conditions: dose 4.5-18 mg/kg, time 7.0 day
Rattus norvegicus [8] = test: Anti-asthmatic activity against ovalbumin-induced asthmatic Sprague-Dawley rat model assessed as reduction in IL-4 cytokine level in BALF at 4.5 to 18 mg/kg, po for 7 days by ELISA; conditions: dose 4.5-18 mg/kg, time 7.0 day
Rattus norvegicus [9] = test: Anti-asthmatic activity against ovalbumin-induced asthmatic Sprague-Dawley rat model assessed as reduction in IL-5 cytokine level in BALF at 4.5 to 18 mg/kg, po for 7 days by ELISA; conditions: dose 4.5-18 mg/kg, time 7.0 day
Rattus norvegicus [10] = test: Anti-asthmatic activity against ovalbumin-induced asthmatic Sprague-Dawley rat model assessed as reduction in IL-13 cytokine level in BALF at 4.5 to 18 mg/kg, po for 7 days by ELISA; conditions: dose 4.5-18 mg/kg, time 7.0 day
Rattus norvegicus [11] = test: Anti-asthmatic activity against ovalbumin-induced asthmatic Sprague-Dawley rat model assessed as reduction in inflammatory cell infiltration in lungs at 4.5 to 18 mg/kg, po for 7 days by H and E staining based microscopic analysis; conditions: dose 4.5-18 mg/kg, time 7.0 day
Rattus norvegicus [12] = test: Anti-asthmatic activity against ovalbumin-induced asthmatic Sprague-Dawley rat model assessed as reduction in airway epithelial thickening in lungs at 4.5 to 18 mg/kg, po for 7 days by H and E staining based microscopic analysis; conditions: dose 4.5-18 mg/kg, time 7.0 day
Rattus norvegicus [13] = test: Anti-asthmatic activity against ovalbumin-induced asthmatic Sprague-Dawley rat model assessed as reduction in NFkappaB protein expression in lungs at 4.5 to 18 mg/kg, po for 7 days by immunohistochemistry analysis; conditions: dose 4.5-18 mg/kg, time 7.0 day
Rattus norvegicus [14] = test: Anti-asthmatic activity against ovalbumin-induced asthmatic Sprague-Dawley rat model assessed as reduction in NFkappaB protein expression in lungs at 4.5 to 18 mg/kg, po for 7 days by western blot analysis; conditions: dose 4.5-18 mg/kg, time 7.0 day
Rattus norvegicus [15] = test: Anti-asthmatic activity against ovalbumin-induced asthmatic Sprague-Dawley rat model assessed as reduction in AMCase mRNA expression in lungs at 4.5 to 18 mg/kg, po for 7 days by qRT-PCR analysis; conditions: dose 4.5-18 mg/kg, time 7.0 day
Rattus norvegicus [16] = test: Anti-asthmatic activity against ovalbumin-induced asthmatic Sprague-Dawley rat model assessed as reduction in CCL11 mRNA expression in lungs at 4.5 to 18 mg/kg, po for 7 days by qRT-PCR analysis; conditions: dose 4.5-18 mg/kg, time 7.0 day
Rattus norvegicus [17] = test: Anti-asthmatic activity against ovalbumin-induced asthmatic Sprague-Dawley rat model assessed as reduction in CCR3 mRNA expression in lungs at 4.5 to 18 mg/kg, po for 7 days by qRT-PCR analysis; conditions: dose 4.5-18 mg/kg, time 7.0 day
Rattus norvegicus [18] = test: Anti-asthmatic activity against ovalbumin-induced asthmatic Sprague-Dawley rat model assessed as reduction in YM2 mRNA expression in lungs at 4.5 to 18 mg/kg, po for 7 days by qRT-PCR analysis; conditions: dose 4.5-18 mg/kg, time 7.0 day
Rattus norvegicus [19] = test: Anti-asthmatic activity against ovalbumin-induced asthmatic Sprague-Dawley rat model assessed as reduction in E-selectin mRNA expression in lungs at 4.5 to 18 mg/kg, po for 7 days by qRT-PCR analysis; conditions: dose 4.5-18 mg/kg, time 7.0 day

Measured: Activity

O=C(/C=C/c1ccc(O)c(O)c1)O[C@H](Cc1ccc(O)c(O)c1)C(=O)O
active: Rattus norvegicus [1] | Rattus norvegicus [2] | Rattus norvegicus [3] | Rattus norvegicus [4] | Rattus norvegicus [5] Dde | Rattus norvegicus [6] Dde | Rattus norvegicus [7] | Rattus norvegicus [8] | Rattus norvegicus [9] | Rattus norvegicus [10] | Rattus norvegicus [11] | Rattus norvegicus [12] | Rattus norvegicus [13] | Rattus norvegicus [14] | Rattus norvegicus [15] | Rattus norvegicus [16] | Rattus norvegicus [17] | Rattus norvegicus [18] | Rattus norvegicus [19]
